Measured values as given in ChEMBL document CHEMBL4627246, “Pyroglutamide-Based P2X7 Receptor Antagonists Targeting Inflammatory Bowel Disease” (J Med Chem, 2020).

What was measured:
Assay type in all cases: cell-based
SK-MEL-2 = assay: Cytotoxicity against human SK-MEL-2 cells assessed as effect on cell growth at 10 uM incubated for 48 hrs by sulforhodamine B assay; details: sk-mel-2, 48 h
A498 = assay: Cytotoxicity against human A498 cells assessed as effect on cell growth at 10 uM incubated for 48 hrs by sulforhodamine B assay; details: a498, 48 h
UACC-257 = assay: Cytotoxicity against human UACC257 cells assessed as effect on cell growth at 10 uM incubated for 48 hrs by sulforhodamine B assay; details: uacc-257, 48 h
T47D = assay: Cytotoxicity against human T47D cells assessed as effect on cell growth at 10 uM incubated for 48 hrs by sulforhodamine B assay
UO-31 = assay: Cytotoxicity against human UO31 cells assessed as effect on cell growth at 10 uM incubated for 48 hrs by sulforhodamine B assay; details: uo-31, 48 h
OVCAR-8 = assay: Cytotoxicity against human OVCAR8 cells assessed as effect on cell growth at 10 uM incubated for 48 hrs by sulforhodamine B assay; details: ovcar-8, 48 h
SW-620 = assay: Cytotoxicity against human SW620 cells assessed as effect on cell growth at 10 uM incubated for 48 hrs by sulforhodamine B assay; details: sw-620, 48 h
NCI-H23 = assay: Cytotoxicity against human NCI-H23 cells assessed as effect on cell growth at 10 uM incubated for 48 hrs by sulforhodamine B assay; details: nci-h23, 48 h
HL-60(TB) = assay: Cytotoxicity against human HL-60(TB) cells assessed as effect on cell growth at 10 uM incubated for 48 hrs by sulforhodamine B assay
PC-3 = assay: Cytotoxicity against human PC3 cells assessed as effect on cell growth at 10 uM incubated for 48 hrs by sulforhodamine B assay; details: pc-3, 48 h
CAKI-1 = assay: Growth inhibition of human Caki1 cells assessed as growth percentage at 10 uM incubated for 48 hrs by sulforhodamine B assay; details: caki-1, 48 h
SK-MEL-28 = assay: Cytotoxicity against human SK-MEL-28 cells assessed as effect on cell growth at 10 uM incubated for 48 hrs by sulforhodamine B assay; details: sk-mel-28, 48 h
OVCAR-5 = assay: Cytotoxicity against human OVCAR5 cells assessed as effect on cell growth at 10 uM incubated for 48 hrs by sulforhodamine B assay; details: ovcar-5, 48 h
A549 = assay: Cytotoxicity against human A549/ATCC cells assessed as effect on cell growth at 10 uM incubated for 48 hrs by sulforhodamine B assay; details: a549, 48 h
RPMI-8226 = assay: Cytotoxicity against human RPMI8226 cells assessed as effect on cell growth at 10 uM incubated for 48 hrs by sulforhodamine B assay; details: rpmi-8226, 48 h
EKVX = assay: Cytotoxicity against human EKVX cells assessed as effect on cell growth at 10 uM incubated for 48 hrs by sulforhodamine B assay
M14 = assay: Cytotoxicity against human M14 cells assessed as effect on cell growth at 10 uM incubated for 48 hrs by sulforhodamine B assay; details: m14, 48 h
MDA-MB-231 = assay: Cytotoxicity against human MDA-MB-231 cells assessed as effect on cell growth at 10 uM incubated for 48 hrs by sulforhodamine B assay; details: mda-mb-231, 48 h
SF-539 = assay: Cytotoxicity against human SF539 cells assessed as effect on cell growth at 10 uM incubated for 48 hrs by sulforhodamine B assay; details: sf-539, 48 h
HT-29 = assay: Cytotoxicity against human HT-29 cells assessed as effect on cell growth at 10 uM incubated for 48 hrs by sulforhodamine B assay; details: ht-29, 48 h

Measured: Activity

O=C(NCc1ccc(Cl)cc1Cl)[C@@H]1CCC(=O)N1Cc1ccccc1
Non-Toxic: all assays above

CN(C)C(=O)[C@@H]1CCC(=O)N1
Non-Toxic: all assays above

COc1ccc(N2C(=O)CC[C@H]2C(=O)NCc2ccc(Cl)cc2Cl)cc1
Non-Toxic: all assays above

O=C(NCc1ccccc1Cl)[C@@H]1CCC(=O)N1c1ccccc1
Non-Toxic: all assays above

O=C1CCCC(C(=O)NCc2ccc(Cl)cc2Cl)N1 (stereo not given)
Non-Toxic: all assays above

O=C(NCc1ccc(Cl)cc1Cl)[C@@H]1CCC(=O)N1c1ccc(Cl)cc1
Non-Toxic: all assays above

COc1ccc(CN2C(=O)CC[C@H]2C(=O)NCCc2ccccc2)cc1
Non-Toxic: all assays above

O=C(NCc1ccc(Cl)cc1Cl)[C@@H]1CCC(=O)N1c1ccsc1
Non-Toxic: all assays above

O=C(Nc1ccc(Cl)cc1Cl)[C@@H]1CCC(=O)N1Cc1ccccc1Cl
Non-Toxic: all assays above

O=C1N[C@H](C(=O)NCc2ccc(Cl)cc2Cl)C/C1=C\N1CCOCC1
Non-Toxic: all assays above

C[n+]1ccccc1C(=O)NCc1ccc(Cl)cc1Cl.[I-]
Non-Toxic: all assays above

COC(=O)[C@@H]1C/C(=C\NCc2ccc(Cl)cc2Cl)C(=O)N1C(=O)OC
Non-Toxic: all assays above

CN(C)/C=C1\C[C@H]2C(=O)N(Cc3ccc(Cl)cc3Cl)C(N(C)C)N2C1=O (stereo not given in full)
Non-Toxic: all assays above
